Data on 13 compounds can be found in patent US9938321B2, “Cyclic peptoid oligomers, pharmaceutical compositions and methods of using the same” (priority 2013, dated 2018).

In data set [1] the test system is MRSA USA300 (S. aureus LAC). Particulars: for MIC + NHS: MRSA USA300 in 50% (v/v) normal human serum. The method, then: The antimicrobial activities of these four compounds were evaluated in the presence of serum. Such a consideration is critical in evaluating the potential of antimicrobial compounds to be used systemically, as serum components (e.g. proteins) may complicate antimicrobial activity. The assay was conducted similarly as described above, with the media supplemented with 50% normal human serum (NHS).
(§1) Minimum Inhibitory Concentrations (MIC) were determined against S. aureus LAC in RPMI media supplemented with or without normal human serum (NHS). The 10% hemolytic dose was determined from lysis of human erythrocytes. A selectivity ratio (SR) is defined as HC10/MIC. Cytotoxicity assays were performed using a CellTiter kit with HeLa cells. […] TI: therapeutic index defined as LD50/MIC.
(§2) Antimicrobial susceptibility assays were conducted in 96-well plates using the broth microdilution procedure outlined in the document M07-A7 of the CLSI (Clinical and Laboratory Standards Institute. Methods for Dilution Antimicrobial Susceptibility Tests for Bacteria That Grow Aerobically-Seventh Edition: Approved Standard CLSI document M07-A7. CLSI, Wayne, USA, 2006). Screens against Staphylococcus aureus LAC, MW2, Newman, and RN6734 were conducted in RPMI (Roswell Park Memorial Institute) medium. For assays in serum, normal human pooled serum (NHS) was filtered through a 0.45 μm syringe filter (Pall) prior to dilution with RPMI, such that each well contained 50% (v/v) NHS. Experiments were conducted in three independent replicates of three parallel trials to ensure statistical significance.
(§3) MRSA pulse-field gel electrophoresis types USA300 (strain LAC) (Kennedy, et al, Proc. Natl. Acad. Sci. U.S.A. 2008, 105, 1327-1332) and USA500 (BK2395) (Alonzo, 3rd, et al, Mol. Microbiol. 2012, 83, 423-435) were used in this study. S. aureus were grown in tryptic soy broth (BD Biosciences) as described previously. (Alonzo) Antimicrobial susceptibility assays were conducted in 96-well plates using the broth […] procedure outlined in the document M07-A7 of the CLSI. (Clinical and Laboratory Standards Institute. Methods for Dilution Antimicrobial Susceptibility Tests for Bacteria That Grow Aerobically-Seventh Edition: Approved Standard CLSI document M07-A7. CLSI, Wayne, USA, 2006). The screens against Staphylococcus aureus LAC were conducted in either LB (Luria-Bertani) or RPMI medium. For assays in serum, normal human pooled serum (NHS) was filtered through a 0.45 μm syringe filter (Pall) prior to dilution with RPMI, such that each well contained 50% (v/v) NHS. Experiments were conducted in three independent replicates of three parallel trials to ensure statistical significance.

The nature of data set [2]: in vitro. Particulars: LC50 (50% lethal concentration), HeLa cells, 1 hr incubation at 37° C. As to the method:
As an additional parameter of selectivity, the inventors also evaluated the compounds for toxicity towards nucleated mammalian cells (FIG. 3). The compounds were incubated with HeLa cells for 1 hr at 37° C. and cell viability was determined by a dye-based assay.
HeLa cells (˜[…] cells per well) were seeded in a tissue culture-treated 96-well plate (Corning). The cells were monitored for confluence via light microscopy prior to the addition of compounds to a final volume of 100 μL/well. Following incubation with the compounds (for 1 hour or 24 hours at 37° C.), Cell Titer (Promega) was added to each well and the assay was allowed to develop for 1 hour at 37° C. Absorbance was then read at 490 nm using a Wallac Envision plate reader. The experiments were always conducted in triplicate with water or ethanol as the negative control. Percent cell viability (% CV) was calculated as the ratio of mean absorbance of the test wells and the mean absorbance of the water or ethanol treated wells.
Following seeding in DMEM supplemented with 10% v/v FBS (fetal bovine serum) in tissue-culture plates (Corning), adherent HeLa cells were trypsinized, washed in PBS, and re-suspended in medium at a density of 1×10^6 cells/mL. A 100 μL cell suspension was seeded onto a 96-well plate and cultured for 25 hrs. Subsequently, cells were exposed to the different compounds for 1 and 24 hrs and the cell viability evaluated using CellTiter 96® AQueous Non-Radioactive Cell Proliferation Assay (Promega).

Data set [3] deals with human erythrocytes. It is filed as cell-based. The note with it: red cells of human, 1 h. The source says:
A detrimental property of most AMPs is their toxicity towards host cells due to non-specific interactions with eukaryotic membranes. Thus, the development of antimicrobial oligomers is often aimed at maximizing antimicrobial activity while minimizing eukaryotic cell toxicity. The inventors therefore sought to determine the toxicity of the cyclic peptoids by measuring hemolytic activity. The concentration of antimicrobial compound required to lyse 10% of human erythrocytes (HC10) following incubation for 1 hour at 37° C., was determined.
Hemolysis assays were conducted in 96-well plates using fresh human erythrocytes in PBS (phosphate-buffered saline) solution. Erythrocytes treated with a detergent (1% Triton X-100) solution were used as a positive control for erythrocyte lysis, and vehicle buffer (PBS) was used as a negative control. Hemolytic percentages were defined as [(A−Atestblank)/(Acontrol−Ablank)]×100, where A is the absorbance of the test well and Acontrol the average absorbance of wells with erythrocytes exposed to […], Atestblank (PBS and antimicrobial) and Ablank (PBS only).

For data set [4], the system named is Plasmodium falciparum 3D7. Particulars: 3D7, 96 h.
Method: In order to assess the ability of the peptoid oligomers described herein to act as antimalarial agents, fluorescence-based in vitro antimalarial assays were performed.
Cultures are maintained by changing the medium daily and keeping parasitemia below 6%. When performed, parasite cultures are synchronized using a MACS cell separation column (Miltenyi Biotec). To determine parasitemia, the number of parasitized erythrocytes from 500 cells in a Giemsa stained blood smear are counted.
Drug Treatment: • 1. Add 100 μL of warm (37° C.) complete media containing drug to each well of a 96 multi-well clear, sterile plate. • 2. […] After 96 hours of growth*, freeze at −80° C. overnight. *Note: Growth can be examined by pipetting 5 from desired wells onto slides and creating blood smears. […] After freezing, thaw at 37° C. for 4 hours. • 6. Transfer 100 μL, pipetting wells up and down to mix, to a black, sterile 96 well plate. • 7. Create working solution of 0.2 μL of SYBR Green per 1 mL of lysis buffer, and add 100 μL of this solution to each well, pipetting up and down to mix/lyse erythrocytes. *Note: mixture should be a translucent red color. • 8. Incubate at room temperature, protected from light, on a shaker for 1 hour.
Measure the fluorescence using excitation and emission wavelengths of 485 and 530 nm, respectively. […]
For data set [5], the system named is MRSA USA300 (S. aureus LAC). The method, then: The cyclic pentamers and hexamers were evaluated for antimicrobial activity against S. aureus LAC, a clinical isolate of MRSA. The antimicrobial assay was conducted using previously published procedures (CLSI Broth Macrodilution Procedures CLSI M07-A7).
as §1, §2, §3

The mark [6] stands for this setting: Table 2, S. aureus LAC, clinical isolate of MRSA.
The mark [7] stands for this setting: Table 3, MRSA USA300, without serum.

In brackets after ≈: the same amount, converted by molar mass. Where two headings read alike, the source gives them in different places. Non-standard residues stand in square brackets, D forms with d. Residues, ends and D or L forms follow the SMILES beside them. Gly(N(CH2)3NH2) = NCCCNCC(=O)O; Nphe = O=C(O)CNCc1ccccc1; Orn = NCCC[C@H](N)C(=O)O; Nlys = NCCCCNCC(=O)O

A word on the CC50: it is the concentration giving 50% cytotoxicity. Lower therefore signals greater toxicity to the cells. As for `NCCCN1CC(=O)N(CC(c2ccccc2)c2ccccc2)CC(=O)N(CCCN)CC(=O)N(CC(c2ccccc2)c2ccccc2)CC(=O)N(CCCN)CC(=O)N(CC(c2ccccc2)c2ccccc2)CC1=O` [Compound C3, C(NapNdp)3], the “MIC + NHS” value in data set [1] was determined as 15.6 µg/mL. For the same compound, the CC50 in data set [2] is 63 µg/mL (≈ 59.8 µM).
On to `NCCCN1CC(=O)N(Cc2ccccc2)CC(=O)N(CCCN)CC(=O)N(Cc2ccccc2)CC(=O)N(CCCN)CC(=O)N(Cc2ccccc2)CC1=O` [Compound 23, C(NapNpm)3] (cyclo([Nphe][Gly(N(CH2)3NH2)][Nphe][Gly(N(CH2)3NH2)][Nphe][Gly(N(CH2)3NH2)])), for which, in data set [3], the “HC10 (concentration required to lyse 10% of human erythrocytes)” value is above 250 µg/mL.
As a reminder, the IC50 is the point on the concentration scale where inhibition reaches its midpoint. A lower IC50 goes with higher potency. `COc1ccc(CN2CC(=O)N(CCCN)CC(=O)N(Cc3ccc(OC)c(OC)c3)CC(=O)N(CCCN)CC(=O)N(Cc3ccc(OC)c(OC)c3)CC(=O)N(CCCN)CC2=O)cc1OC` [Compound C5-1] displayed a half-inhibitory concentration (IC50) in data set [4] of 26.8 µM.
Usually MIC stands for the smallest concentration in the dilution series that meets the test's criterion for growth inhibition. Take `NCCCN1CC(=O)N(Cc2cc(C(F)(F)F)cc(C(F)(F)F)c2)CC(=O)N(CCCN)CC(=O)N(Cc2cc(C(F)(F)F)cc(C(F)(F)F)c2)CC(=O)N(CCCN)CC(=O)N(Cc2cc(C(F)(F)F)cc(C(F)(F)F)c2)CC1=O` [Compound C125, C(NapNbtfmb)3]: the MIC in data set [5] (setting [6]) and in data set [5] (setting [7]) was 3.9 µg/mL (≈ 3.27 µM) each time. In addition, the “decrease in anti-microbial activity in serum” value in data set [1] (50% NHS versus no serum) is listed as “sixteen-fold”. The “MIC + NHS” value in data set [1] is 62.5 µg/mL. Also, in data set [2] (human), it took 47 µg/mL (≈ 39.4 µM) to reach half-maximal cytotoxicity (CC50 at 1 h).
`NCCCN1CC(=O)N(c2ccc3c(c2)Cc2ccccc2-3)CC(=O)N(CCCN)CC(=O)N(c2ccc3c(c2)Cc2ccccc2-3)CC(=O)N(CCCN)CC(=O)N(c2ccc3c(c2)Cc2ccccc2-3)CC1=O` [Compound C106, C(NapN2flene)3] came in with an MIC in data set [5] (USA300) of 3.9 µg/mL (≈ 3.88 µM).
Same read-out and setting: for `NCCCN1CC(=O)N(Cc2ccc(C(F)(F)F)cc2)CC(=O)N(CCCN)CC(=O)N(Cc2ccc(C(F)(F)F)cc2)CC(=O)N(CCCN)CC(=O)N(Cc2ccc(C(F)(F)F)cc2)CC1=O` [Compound C123, C(NapNptfmpm)3] the value was 3.9 µg/mL (≈ 3.95 µM).
As to `NCCCCN1CC(=O)N(Cc2ccccc2)CC(=O)N(CCCCN)CC(=O)N(Cc2ccccc2)CC(=O)N(CCCCN)CC(=O)N(Cc2ccccc2)CC1=O` [Compound 30, C(NabNpm)3] (cyclo([Nlys][Nphe][Nlys][Nphe][Nlys][Nphe])), in data set [3], the “HC10 (concentration required to lyse 10% of human erythrocytes)” value was above 250 µg/mL.
In the case of `Cc1ccc(CN2CC(=O)N(CCCN)CC(=O)N(Cc3ccc(C)cc3)CC(=O)N(CCCN)CC(=O)N(Cc3ccc(C)cc3)CC(=O)N(CCCN)CC2=O)cc1` [Compound C122, C(NapNpmpm)3], the MIC in data set [5] (setting [6]) amounted to 15.6 µg/mL (≈ 18.9 µM).
`NCCCN1CC(=O)N(CCC(c2ccccc2)c2ccccc2)CC(=O)N(CCCN)CC(=O)N(CCC(c2ccccc2)c2ccccc2)CC(=O)N(CCCN)CC(=O)N(CCC(c2ccccc2)c2ccccc2)CC1=O` [Compound C103, C(NapNdpp)3] came in with an MIC in data set [5] (USA300) of 3.9 µg/mL (≈ 3.56 µM).
For `N=C(N)NCCCCN1CC(=O)N(CC(c2ccccc2)c2ccccc2)CC(=O)N(CCCCNC(=N)N)CC(=O)N(CC(c2ccccc2)c2ccccc2)CC(=O)N(CCCCNC(=N)N)CC(=O)N(CC(c2ccccc2)c2ccccc2)CC(=O)N(CCCCNC(=N)N)CC(=O)N(CC(c2ccccc2)c2ccccc2)CC(=O)N(CCCCNC(=N)N)CC(=O)N(CC(c2ccccc2)c2ccccc2)CC1=O` [Compound 31, C(NgbNdp)5], in data set [3], the “HC10 (concentration required to lyse 10% of human erythrocytes)” value was above 62.5 µg/mL.
On to `NCCCN1CC(=O)N(Cc2ccc(-c3ccccc3)cc2)CC(=O)N(CCCN)CC(=O)N(Cc2ccc(-c3ccccc3)cc2)CC(=O)N(CCCN)CC(=O)N(Cc2ccc(-c3ccccc3)cc2)CC1=O` [Compound C105, C(NapNpp)3], for which the MIC in data set [5] (USA300) came to 3.9 µg/mL (≈ 3.85 µM).
As to `CC(C)C[C@@H]1NC(=O)[C@H](CCCN)NC(=O)[C@H](C(C)C)NC(=O)[C@@H]2CCCN2C(=O)[C@@H](Cc2ccccc2)NC(=O)[C@H](CC(C)C)NC(=O)[C@H](CCCN)NC(=O)[C@H](C(C)C)NC(=O)[C@@H]2CCCN2C(=O)[C@@H](Cc2ccccc2)NC1=O` [Gramicidin S, reference compound] (cyclo(V[Orn]L[dF]PV[Orn]L[dF]P)), in data set [5] (setting [7]), the minimum inhibitory concentration (MIC) is 31.3 µg/mL (≈ 27.4 µM). For the same compound, the “MIC + NHS” value in data set [1] turned out to be 31.3 µg/mL. This compound showed a CC50 in data set [2] of 31.3 µg/mL (≈ 27.4 µM).
In turn, `NCCCN1CC(=O)N(C(c2ccccc2)c2ccccc2)CC(=O)N(CCCN)CC(=O)N(C(c2ccccc2)c2ccccc2)CC(=O)N(CCCN)CC(=O)N(C(c2ccccc2)c2ccccc2)CC1=O` [Compound C104, C(NapNdpm)3] yielded an MIC in data set [5] (USA300) of 3.9 µg/mL (≈ 3.85 µM).
